Measurements published in PMC11071649, “Synthesis and Selective Anticancer Activity Evaluation of 2-phenylacrylonitrile Derivatives as Tubulin Inhibitors” (Current Medicinal Chemistry, 2024).

Assays:
Format in all cases: cell-based, human
HepG2 hepatoma cell = experiment: MTT anti-proliferative assay, HepG2; settings: MTT, 48 h; read-out: IC50 HepG-2
Summary of the method: (§1)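 Anti-proliferative effect is measured with the MTT assay, which reports inhibition of net cell growth. Cells come from ATCC, are maintained in DMEM with FBS and are seeded into 96-well plates before treatment.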

L-02 normal liver cell = experiment: MTT assay, L-02 normal cells; settings: 48 h
Summary of the method: as §1

[1] = test system: MCF-10A normal breast cell; experiment: MTT assay, MCF-10A normal cells; settings: 48 h
Summary of the method: as §1

[2] = test system: BEL-7402 liver cancer cell; experiment: MTT anti-proliferative assay, BEL-7402; settings: MTT, 48 h
Summary of the method: as §1

MCF-7 breast cancer cell = experiment: MTT anti-proliferative assay, MCF-7; settings: MTT, 48 h
Summary of the method: as §1

[3] = test system: Raji B lymphoblastoid cell; experiment: MTT anti-proliferative assay, Raji; settings: for IC50: MTT, 48 h, read-out: IC50 Raji
Summary of the method: as §1

[4] = test system: diffuse large B-cell lymphoma SU-DHL-10 cell; experiment: MTT anti-proliferative assay, SU-DHL-10; settings: for IC50: MTT, 48 h, read-out: IC50 SU-DHL-10
Summary of the method: as §1

AGS gastric cancer cell = experiment: MTT anti-proliferative assay, AGS; settings: for IC50: MTT, 48 h
Summary of the method: as §1

[5] = test system: MGC-803 late stage differentiation gastric cancer cell; experiment: MTT anti-proliferative assay, MGC-803; settings: MTT, 48 h
Summary of the method: as §1

[6] = test system: HeLa cervical cancer cell; experiment: MTT anti-proliferative assay, HeLa; settings: MTT, 48 h
Summary of the method: as §1

[7] = test system: HCT116 colectal cancer cell; experiment: MTT anti-proliferative assay, HCT116; settings: for IC50: MTT, 48 h, read-out: IC50 HCT-116
Summary of the method: as §1

A549 lung cancer cell = experiment: MTT anti-proliferative assay, A549; settings: for IC50: MTT, 48 h
Summary of the method: as §1

[8] = test system: SGC-7901 early differentiation gastric cancer cell; experiment: MTT anti-proliferative assay, SGC-7901; settings: MTT, 48 h
Summary of the method: as §1

Row | SMILES | IC50 (HepG2 hepatoma cell) | IC50 (L-02 normal liver cell) | IC50 [1] | IC50 [2] | IC50 (MCF-7 breast cancer cell) | SI (selectivity index), IC50 (L-02)/IC50 (Raji) [3] | IC50 [3] | SI (selectivity index), IC50 (L-02)/IC50 (SU-DHL-10) [4] | IC50 [4] | IC50 (AGS gastric cancer cell) | IC50 [5] | IC50 [6] | IC50 [7] | IC50 (A549 lung cancer cell) | IC50 [8] | SI (selectivity index), IC50 (L-02)/IC50 (AGS) (AGS gastric cancer cell) | SI (selectivity index), IC50 (L-02)/IC50 (HCT-116) [7] | SI (selectivity index), IC50 (L-02)/IC50 (A549) (A549 lung cancer cell)
1 | N#C/C(=C\c1cccc(C(F)(F)F)c1)c1ccc(C(F)(F)F)cc1 [Compound 1f2l] | > 100 µM | > 100 µM | > 100 µM | > 100 µM | > 100 µM | > 1.3 | 72.1 ± 7.2 µM | > 1.9 | 50.1 ± 20.9 µM | > 100 µM | > 100 µM | > 100 µM | > 100 µM | > 100 µM | > 100 µM |  |  | 
2 | N#C/C(=C\c1ccccc1C(F)(F)F)c1ccc(C(F)(F)F)cc1 [Compound 1f2m] | > 100 µM | > 100 µM | > 100 µM | > 100 µM | > 100 µM |  | > 100 µM |  | > 100 µM | > 100 µM | > 100 µM | > 100 µM | > 100 µM | > 100 µM | > 100 µM | > 2.1 | > 1.7 | > 2.6
3 | Cc1ccc(/C=C(\C#N)c2ccc(C(F)(F)F)cc2)cc1 [Compound 1f2n] | > 100 µM | > 100 µM | > 100 µM | > 100 µM | > 100 µM |  | > 100 µM |  | > 100 µM | 46.4 ± 15 µM | > 100 µM | > 100 µM | 57.3 ± 3.2 µM | 37.9 ± 1 µM | > 100 µM | > 2.4 |  | 
4 | Cc1cccc(/C=C(\C#N)c2ccc(C(F)(F)F)cc2)c1 [Compound 1f2o] | > 100 µM | > 100 µM | > 100 µM | > 100 µM | > 100 µM |  | > 100 µM |  | > 100 µM | 41.2 ± 1.1 µM | > 100 µM | > 100 µM | > 100 µM | > 100 µM | > 100 µM |  |  | 
5 | CCc1ccc(/C=C(\C#N)c2ccc(C(F)(F)F)cc2)cc1 [Compound 1f2p] | > 100 µM | > 100 µM | > 100 µM | > 100 µM | > 100 µM |  | > 100 µM |  | > 100 µM | > 100 µM | > 100 µM | > 100 µM | > 100 µM | > 100 µM | > 100 µM |  |  | 
6 | CC(C)c1ccc(/C=C(\C#N)c2ccc(C(F)(F)F)cc2)cc1 [Compound 1f2q] | > 100 µM | > 100 µM | > 100 µM | > 100 µM | > 100 µM | > 2.8 | 34.9 ± 4.5 µM |  | 38.4 ± 3.6 µM | > 100 µM | > 100 µM | > 100 µM | > 100 µM | > 100 µM | > 100 µM |  |  | 
7 | Cc1cc(C)c(/C=C(\C#N)c2ccc(C(F)(F)F)cc2)c(C)c1 [Compound 1f2r] | > 100 µM | > 100 µM | > 100 µM | > 100 µM | > 100 µM |  | > 100 µM |  | > 100 µM | > 100 µM | > 100 µM | > 100 µM | > 100 µM | > 100 µM | > 100 µM |  |  | 
8 | COc1ccc(/C=C(\C#N)c2ccc(C(F)(F)F)cc2)cc1 [Compound 1f2s] | > 100 µM | > 100 µM | > 100 µM | > 100 µM | > 100 µM |  | > 100 µM |  | > 100 µM | > 100 µM | > 100 µM | > 100 µM | 47.8 ± 0.7 µM | > 100 µM | > 100 µM |  | > 2.0 | 
9 | COc1cccc(/C=C(\C#N)c2ccc(C(F)(F)F)cc2)c1 [Compound 1f2t] | > 100 µM | > 100 µM | > 100 µM | > 100 µM | > 100 µM |  | > 100 µM |  | > 100 µM | 77.5 ± 3.9 µM | > 100 µM | > 100 µM | 33.2 ± 0.2 µM | > 100 µM | > 100 µM | > 1.2 | > 3.0 | 
10 | COc1cc(/C=C(\C#N)c2ccc(C(F)(F)F)cc2)cc(OC)c1OC [Compound 1f2u] | > 100 µM | > 100 µM | 92.5 ± 10.2 µM | > 100 µM | > 100 µM |  | > 100 µM |  | > 100 µM | > 100 µM | > 100 µM | > 100 µM | > 100 µM | > 100 µM | > 100 µM |  |  | 
